From PubChem BioAssay (NCI)
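Exposure lasted 48 hours, with cells grown in 96-well plates and compounds tested at five concentrations. GI50 = concentration required for 50% inhibition of growth. TGI marks complete inhibition of growth.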

Key:
Assay in all cases: NCI-60 cell line screen, 48 h
[1] = test system: BT-549 breast
[2] = test system: A498 renal
[3] = test system: MCF7 breast
[4] = test system: MALME-3M melanoma
[5] = test system: HCT-116 colon
[6] = test system: OVCAR-3 ovarian
[7] = test system: HOP-62 NSCLC
[8] = test system: SNB-19 CNS
[9] = test system: PC-3 prostate
[10] = test system: 786-0 renal
[11] = test system: ACHN renal
[12] = test system: RPMI-8226 leukemia
[13] = test system: U251 CNS
[14] = test system: SK-MEL-28 melanoma
[15] = test system: HS 578T breast
[16] = test system: HCT-15 colon
[17] = test system: COLO 205 colon
[18] = test system: T-47D breast
[19] = test system: NCI/ADR-RES ovarian
[20] = test system: K-562 leukemia
[21] = test system: CAKI-1 renal
[22] = test system: HL-60(TB) leukemia
[23] = test system: SF-295 CNS
[24] = test system: A549 NSCLC
[25] = test system: SW-620 colon
[26] = test system: KM12 colon
[27] = test system: NCI-H23 lung
[28] = test system: SNB-75 CNS
[29] = test system: SF-268 CNS
[30] = test system: SF-539 CNS
[31] = test system: NCI-H226 lung
[32] = test system: CCRF-CEM leukemia
[33] = test system: NCI-H522 lung
[34] = test system: MOLT-4 leukemia
[35] = test system: OVCAR-8 ovarian
[36] = test system: HCC-2998 colon
[37] = test system: IGROV1 ovarian
[38] = test system: TK-10 renal
[39] = test system: HOP-92 NSCLC
[40] = test system: NCI-H460 lung
[41] = test system: SN12C renal
[42] = test system: SR leukemia
[43] = test system: SK-MEL-5 melanoma
[44] = test system: LOX IMVI melanoma
[45] = test system: DU-145 prostate
[46] = test system: UACC-62 melanoma
[47] = test system: OVCAR-4 ovarian
[48] = test system: M14 melanoma
[49] = test system: HT29 colon
[50] = test system: MDA-MB-435
[51] = test system: UO-31 renal
[52] = test system: OVCAR-5 ovarian
[53] = test system: UACC-257 melanoma
[54] = test system: SK-OV-3 ovarian
[55] = test system: EKVX NSCLC
[56] = test system: RXF 393 renal
[57] = test system: SK-MEL-2 melanoma
[58] = test system: MDA-MB-231 breast

SMILES: CN1CCC(n2cnc(-c3ccc(F)cc3)c2-c2ccnc(N)n2)CC1
- GI50 [1]: 15.3 µM
- TGI [1]: > 25 µM
- GI50 [2]: 5.85 µM
- TGI [2]: > 23.5 µM
- GI50 [3]: 1.32 µM
- TGI [3]: > 25 µM
- GI50 [4]: 8.77 µM
- TGI [4]: > 25 µM
- GI50 [5]: 8.19 µM
- TGI [5]: > 25 µM
- GI50 [6]: 11 µM
- TGI [6]: > 25 µM
- GI50 [7]: 9.44 µM
- TGI [7]: > 25 µM
- GI50 [8]: 10.3 µM
- TGI [8]: > 25 µM
- GI50 [9]: 9.28 µM
- TGI [9]: > 25 µM
- GI50 [10]: 11.6 µM
- TGI [10]: > 25 µM
- GI50 [11]: 5.71 µM
- TGI [11]: > 25 µM
- GI50 [12]: 16.6 µM
- TGI [12]: > 25 µM
- GI50 [13]: 8.53 µM
- TGI [13]: > 25 µM
- GI50 [14]: > 23.8 µM
- TGI [14]: > 25 µM
- GI50 [15]: 15.3 µM
- TGI [15]: > 25 µM
- GI50 [16]: 10.5 µM
- TGI [16]: > 25 µM
- GI50 [17]: 7.07 µM
- TGI [17]: > 25 µM
- GI50 [18]: 16 µM
- TGI [18]: > 25 µM
- GI50 [19]: 7.55 µM
- TGI [19]: > 25 µM
- GI50 [20]: 11.6 µM
- TGI [20]: > 25 µM
- GI50 [21]: 7.63 µM
- TGI [21]: > 24.1 µM
- GI50 [22]: > 25 µM
- TGI [22]: > 25 µM
- GI50 [23]: 9.36 µM
- TGI [23]: > 25 µM
- GI50 [24]: 7.47 µM
- TGI [24]: > 25 µM
- GI50 [25]: 5.93 µM
- TGI [25]: > 25 µM
- GI50 [26]: 8.64 µM
- TGI [26]: > 25 µM
- GI50 [27]: 10.6 µM
- TGI [27]: > 25 µM
- GI50 [28]: 10 µM
- TGI [28]: > 23.9 µM
- GI50 [29]: 10.4 µM
- TGI [29]: > 25 µM
- GI50 [30]: 14.2 µM
- TGI [30]: > 25 µM
- GI50 [31]: 10.9 µM
- TGI [31]: > 25 µM
- GI50 [32]: 14.4 µM
- TGI [32]: > 25 µM
- GI50 [33]: 8.57 µM
- TGI [33]: > 25 µM
- GI50 [34]: 12.6 µM
- TGI [34]: > 25 µM
- GI50 [35]: 6.3 µM
- TGI [35]: > 25 µM
- GI50 [36]: 8.98 µM
- TGI [36]: > 25 µM
- GI50 [37]: 6.48 µM
- TGI [37]: > 20.7 µM
- GI50 [38]: 7.89 µM
- TGI [38]: > 25 µM
- GI50 [39]: 3.99 µM
- TGI [39]: 24 µM
- GI50 [40]: 7.01 µM
- TGI [40]: > 25 µM
- GI50 [41]: 6.43 µM
- TGI [41]: > 25 µM
- GI50 [42]: 10.4 µM
- TGI [42]: > 25 µM
- GI50 [43]: 11.6 µM
- TGI [43]: > 25 µM
- GI50 [44]: 6.95 µM
- TGI [44]: > 25 µM
- GI50 [45]: 10.7 µM
- TGI [45]: > 25 µM
- GI50 [46]: 14.1 µM
- TGI [46]: > 25 µM
- GI50 [47]: 7.04 µM
- TGI [47]: > 25 µM
- GI50 [48]: 11.7 µM
- TGI [48]: > 25 µM
- GI50 [49]: 6.2 µM
- TGI [49]: > 25 µM
- GI50 [50]: 8.82 µM
- TGI [50]: > 25 µM
- GI50 [51]: 2.55 µM
- TGI [51]: 16.1 µM
- GI50 [52]: 13.8 µM
- TGI [52]: > 25 µM
- GI50 [53]: 11.7 µM
- TGI [53]: > 25 µM
- GI50 [54]: 10.8 µM
- TGI [54]: > 25 µM
- GI50 [55]: 10.3 µM
- TGI [55]: > 25 µM
- GI50 [56]: 9.74 µM
- TGI [56]: > 25 µM
- GI50 [57]: > 25 µM
- TGI [57]: > 25 µM
- GI50 [58]: 13.5 µM
- TGI [58]: > 25 µM
